Experimental data published in article PMC10821019, “F16 Hybrids Derived from Steviol or Isosteviol Are Accumulated in the Mitochondria of Tumor Cells and Overcome Drug Resistance” (Molecules, 2024).
Values joined by “and” are separate entries in the source; they are usually repeats but may differ in a detail not shown here. Equal entries are not always repeated.

Key:
[1] = test system: A2780 (ovarian carcinoma); assay: SRB cytotoxicity assay, A2780; type: cell-based, human; details: for selectivity index 1 (SI 1): CCD18Co/A2780; for IC50: SRB assay, 72 h treatment, mean n = 3, SD 5-10%; for tumor cell selectivity, in words: tumor cells vs non-malignant fibroblasts CCD18Co
Description: (§1) All compounds were screened for their cytotoxic activity and tumor cell selectivity using our standard model, previously described, comprising a selection of human tumor cell lines representing different solid tumor entities and non-malignant human fibroblasts (CCD18Co) including the cell line pair A2780/A2780cis, a well-known model of acquired drug resistance.
(§2) Reagents were bought from commercial suppliers and used without further purification. The solvents were dried according to the usual procedures. TLC was performed on silica gel (Macherey-Nagel, detection with UV absorption; Macherey-Nagel, Düren, Germany). […] Numbering in the NMR spectra: 1–20 (diterpene core), 21–24 for O-(CH2)n-N fragment followed by the pyridinium ring, the ethenyl moiety and the indole moiety. […] IR spectra were recorded on a Perkin-Elmer Spectrum Two (UATR Two Unit, Perkin-Elmer GmbH, Rodgau, Germany). […] Both media were supplemented with 10% fetal bovine serum (Biowest, Nuaillé, France) and 1% penicillin-streptomycin (Sigma-Aldrich).
(§3) Cytotoxic activities of compounds were analyzed using the SRB cytotoxicity assay. Cells were seeded in 96-well plates and after 24 h were treated with serial dilutions of compounds for 72 h. All subsequent steps were performed according to the previously described SRB assay protocol. Dose–response curves and calculation of IC50 values, including standard deviations, were carried out using GraphPad Prism8.

[2] = test system: A2780cis (resistant derivative of A2780); assay: SRB cytotoxicity assay, A2780cis; type: cell-based, human; details: for drug resistance in the A2780/A2780cis model, in words: A2780cis vs A2780; for IC50: SRB assay, 72 h treatment, mean n = 3, SD 5-10%; for resistance index (RI): quotient IC50 values A2780cis/A2780
Description: as §1, §2, §3

A549 (lung carcinoma) = assay: SRB cytotoxicity assay, A549; type: cell-based, human; details: for selectivity index 2 (SI 2): CCD18Co/A549; for IC50: SRB assay, 72 h treatment, mean n = 3, SD 5-10%
Description: as §1, §2, §3

MCF7 (breast carcinoma) = assay: SRB cytotoxicity assay, MCF7; type: cell-based, human; details: mean n = 3, SD 5-10%
Description: as §1, §2, §3

[3] = test system: HT29 (colorectal carcinoma); assay: SRB cytotoxicity assay, HT29; type: cell-based, human; details: mean n = 3, SD 5-10%
Description: as §1, §2, §3

[4] = test system: CCD18Co (non-malignant human fibroblasts); assay: SRB cytotoxicity assay, CCD18Co; type: cell-based; details: 72 h treatment, mean n = 3, SD 5-10%
Description: as §1, §2, §3

A549 cells = assay: Subcellular localization, live cell fluorescence imaging with AHCS2 and Hoechst 33342; type: cell-based, human; details: 24 h, 10 µM of 5 or 1 µM of 17 or 25, together with 20 nM AHCS2, Hoechst 33342
Description: Next, the subcellular accumulation of compounds 17 and 25 compared to 5 (F16 group) was studied, employing the fluorescent characteristics mediated by the F16 group. Expecting a mitochondrial accumulation of the compounds, our previously described strong mitochondria-targeted and NIR fluorescent agent/mitocan AHCS2 (compound 21 in ref. [4]) was used, thus enabling simultaneous analysis and direct comparison due to different fluorescence spectra.
Analysis of subcellular localization of compounds was performed in A549 cells using the established mitochondrial targeting compound AHCS2 [4] for direct comparison. For all procedures, RPMI 1640 media without phenol-red (Pan-Biotech GmbH, Aidenbach, Germany) was used. Cells were seeded in a µ-Plate 96-well black plate (ibiTreat: #1.5 polymer coverslip bottom, ibidi GmbH, Gräfelfing, Germany) at a cell density of 30.000 per well. After 24 h, cells were treated with 10 µM of compound 5 or 1 µM of compound 17 or 1 µM of compound 25, each together with 20 nM of compound AHCS2. After 24 h, Hoechst 33342 (Sigma-Aldrich) was added and live cell imaging was performed on an Axio Observer 7 (Carl Zeiss Microscopy Deutschland GmbH, Oberkochen, Germany) using the settings for Ex/Em, as follows: Hoechst 33342 (385 nm/425 nm), F16 compounds (475 nm/514 nm), AHCS2 (735 nm/785 nm). For simultaneous analysis, multiple Z-stacked images were taken and resulting pictures were reconstructed using the ZEN 3.5 pro software (Zeiss).

[5] = SRB cytotoxicity assay, CCD18Co; type: cell-based, human; details: human, CCD18Co non-malignant fibroblasts, 72 h treatment, mean n = 3, SD 5-10%
Description: as §1, §2, §3

[6] = Homo sapiens, MCF7, 72 h treatment
[7] = Homo sapiens, HT-29, 72 h treatment

Structure (SMILES) | selectivity index 1 (SI 1) [1] | IC50 [1] [µM] | tumor cell selectivity, in words [1] | drug resistance in the A2780/A2780cis model, in words [2] | IC50 [2] [µM] | resistance index (RI) [2] | selectivity index 2 (SI 2) (A549 (lung carcinoma)) | IC50 (A549 (lung carcinoma)) [µM] | IC50 (MCF7 (breast carcinoma); 72 h treatment) [µM] | IC50 ([3]; 72 h treatment) [µM] | IC50 [4] [µM] | subcellular accumulation (A549 cells) | IC50 ([1]; Homo sapiens, A2780) [µM] | IC50 ([2]; Homo sapiens, A2780cis) [µM] | IC50 (A549 (lung carcinoma); Homo sapiens, A549) [µM] | IC50 (MCF7 (breast carcinoma); [6]) [µM] | IC50 [3, 7] [µM] | IC50 at 72 h [5] [µM] | melting point [°C]
CC12CCC3C(CCC4C(C)(C(=O)OCCCC[n+]5ccc(C=Cc6c[nH]c7ccccc67)cc5)CCCC34C)(CC1=O)C2.[Br-] (stereo not drawn) [Compound 25, 4-{4[(E)-2-(1H-Indol-3-yl)ethenyl]-pyridinium-1-yl}butyl (4α, 8β, 13β) 13-Methyl-16-oxo-17-norkauran-18-oate Bromide] | 59 and 59.32 | 0.18 | retained selectivity | able to reduce or even overcome drug resistance | 0.31 | 1.70 | 4.14 | 2.62 | 0.49 | 0.88 | 10.8 | preferential mitochondrial localization | – | – | – | – | – | – | –
CC12CCC3C(CCC4C(C)(C(=O)OCCC[n+]5ccc(C=Cc6c[nH]c7ccccc67)cc5)CCCC34C)(CC1=O)C2.[Br-] (stereo not drawn) [Compound 17, 3-{4-[(E)-2-(1H-Indol-3-yl)ethenyl]-pyridinium-1-yl}-propyl (4α, 8β, 13β) 13-Methyl-16-oxo-17-norkauran-18-oate Bromide] | 71.25 | 0.28 | retained selectivity | able to reduce or even overcome drug resistance | 0.3 | 1.07 | 5.88 | 3.39 | 0.59 | 0.76 | 19.9 | preferential mitochondrial localization | – | – | – | – | – | – | –
C(=C\c1c[nH]c2ccccc12)/c1ccncc1 [Compound 5, 3-[(E)-2-Pyridin-4-yl-ethenyl]-1H-indole] | 44.21 | – | – | – | – | 7.26 | 6.49 | – | – | – | – | preferential mitochondrial localization | 2.26 | 16.4 | 15.4 | 10.9 | 16.5 | 100 | 254 to 255
C(=C\c1c[nH]c2ccccc12)/c1ccccn1 [Compound 3, 3-[(E)-2-Pyridin-2-yl-ethenyl]-1H-indole] | 73.27 | – | – | – | – | 32.88 | 3.33 | – | – | – | – | – | 1.19 | 39.2 | 26.3 | 1.12 | 28.7 | 87.4 | 185 to 187
